These results are taken from ChEMBL document CHEMBL5050830, “Novel antibacterial compounds” (2013).

Activity calls are given as the source filed them. The calls are words filed in the database; no cut-off is given here.

Data set [1] addresses T1, NAD kinase 1 (Listeria monocytogenes serovar 1/2a (strain ATCC BAA-679 / EGD-e), UniProt Q8Y8D7).
T1 sequence (Q8Y8D7 whole entry): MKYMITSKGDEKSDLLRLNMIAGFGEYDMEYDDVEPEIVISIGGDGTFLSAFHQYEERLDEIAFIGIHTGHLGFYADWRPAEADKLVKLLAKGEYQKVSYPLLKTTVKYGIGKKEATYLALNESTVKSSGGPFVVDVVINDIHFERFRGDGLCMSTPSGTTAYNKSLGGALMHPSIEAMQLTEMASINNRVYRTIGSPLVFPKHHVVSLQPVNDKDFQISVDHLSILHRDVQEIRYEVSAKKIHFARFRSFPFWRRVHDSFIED
In words: Inhibition of His-tagged Listeria monocytogenes NADK1 in presence of glucose-6-phosphate dehydrogenase and NADP measured by spectrophotometry method.

The nature of data set [2]: Inhibition of His-tagged Staphylococcus aureus NADK in presence of glucose-6-phosphate dehydrogenase and NADP measured by spectrophotometry method.
Data set [3] relates to Staphylococcus aureus. Kind of data set: Antibacterial activity against Staphylococcus aureus S25 strain at 1 ug/ml assessed as decrease in number of colony forming units relative to control. Conditions: dose 1.0 µg/ml. The class given is functional, organism-based.
Data set [4] concerns HeLa. In words: Cytotoxicity against human HeLa cells at 10 uM assessed as change in cell shape and multiplication after 96 hrs. In kind it is toxicity, cell-based.
The subject of data set [5] is Staphylococcus aureus. In words: Antibacterial activity against Staphylococcus aureus S25 strain at 8 ug/ml assessed as decrease in number of colony forming units relative to control. In kind it is functional, organism-based. Conditions: dose 8.0 µg/ml.
Data set [6] relates to Staphylococcus aureus. Kind of data set: Antibacterial activity against Staphylococcus aureus S25 strain at 10 ug/ml assessed as decrease in number of colony forming units relative to control. The class given is functional, organism-based. Conditions: dose 10.0 µg/ml.

Turning to `NC[C@H]1O[C@@H](n2c(SCC(=O)NC[C@H]3O[C@@H](n4cnc5c(N)ncnc54)[C@H](O)[C@@H]3O)nc3c(N)ncnc32)[C@H](O)[C@@H]1O`, the results for the Ki in data set [1] and in data set [2] were 30 µM and 50 µM, respectively. The result in data set [3] was Active. For the same compound, the Activity result in data set [4] is “Non-Toxic”.
For the compound `CN[C@H](CC(C)C)C(=O)N[C@H]1C(=O)N[C@@H](CC(N)=O)C(=O)N[C@H]2C(=O)N[C@H]3C(=O)N[C@H](C(=O)N[C@H](C(=O)O)c4cc(O)cc(O)c4-c4cc3ccc4O)[C@H](O)c3ccc(c(Cl)c3)Oc3cc2cc(c3O[C@@H]2O[C@H](CO)[C@@H](O)[C@H](O)[C@H]2O[C@H]2C[C@](C)(N)[C@H](O)[C@H](C)O2)Oc2ccc(cc2Cl)[C@H]1O`, in data set [5], the outcome was Active.
For `Nc1ncnc2c1ncn2[C@@H]1O[C@H](COCC#Cc2nc3c(N)ncnc3n2[C@@H]2O[C@H](CO)[C@@H](O)[C@H]2O)[C@@H](O)[C@H]1O`, the Ki (in general, a dissociation constant, usually derived from enzyme kinetics or from competition with a known ligand) in data set [1] was 20 µM; in data set [2], 15 µM. Also, in data set [3], the result was Active. The Activity entry in data set [4] is on record as “Non-Toxic”.
`NC[C@H]1O[C@@H](n2c(Br)nc3c(N)ncnc32)[C@H](O)[C@@H]1O`: the IC50 (in general, the midpoint of a concentration-inhibition curve) in data set [1] came out at 300 µM.
As for `Nc1ncnc2c1ncn2[C@@H]1O[C@H](CNCC#Cc2nc3c(N)ncnc3n2[C@@H]2O[C@H](CO)[C@@H](O)[C@H]2O)[C@@H](O)[C@H]1O`, in data set [6], the result was Active. Moreover, in data set [4], the Activity result was “Non-Toxic”.
